Results taken from patent US20170029841A1, “METHODS AND COMPOSITIONS FOR SELECTIVE REGULATION OF PROTEIN EXPRESSION” (priority 2015, published 2017).

Legend:
[1] = test system: maize tissue pools (tassel, ear, leaf, root, stem); experiment: siRNA profiling microarray assay of mts-siRNA sequences across maize tissues; conditions: for 01DKD2 V8-V9 Tassel relative signal value: germplasm 01DKD2, V8-V9 tassel; for 01DKD2 V10-V12 Tassel relative signal value: germplasm 01DKD2, V10-V12 tassel; for 01DKD2 Other Tissue relative signal value: germplasm 01DKD2, combined signals from other tissue; for LH244 V8-V9 Tassel relative signal value: germplasm LH244, V8-V9 tassel; for LH244 V10-V12 Tassel relative signal value: germplasm LH244, V10-V12 tassel; for LH244 Other Tissue relative signal value: germplasm LH244, combined signals from other tissue
Summary of the method: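 Total RNA from LH244 or 01DKD2 inbred maize tissue pools hybridized to microfluidic chips with triplicate complementary probes for 1,200 mts-siRNAs. Signals background-subtracted and normalized, reported as relative values with standard error. Differential expression by t-test, p<0.05.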

[2] = test system: transgenic maize R0 plants (double copy events); experiment: R0 plant greenhouse glyphosate spray: vegetative tolerance and induced male sterility; format: in vivo; conditions: for % Vegetative Tolerant / % Completely Male-sterile / % No Pollen: vector configuration A; for % Vegetative Tolerant: glyphosate 0.75 lb ae/acre at V5 then V8, <=10% injury 7 days after V5 spray; for % Completely Male-sterile: no anther extrusion up to S90+12 after V8 glyphosate; for % No Pollen: no viable pollen by Alexandar staining
Description: Transformation vectors containing the recombinant DNA constructs were used with an Agrobacterium-based transformation method and maize immature embryos and techniques known in the art. Leaf samples of R0 plants were collected and molecular analysis was conducted to select transgenic plants containing a single copy (one insertion) or a double copy (two independent insertions) of the recombinant DNA construct and no presence of vector backbone. Single copy events were not sprayed with glyphosate and were selfed and advanced for R1 seed collection, while double copy events were used for R0 glyphosate spray to assess vegetative tolerance and induced male sterility. Transgenic plants that were not sprayed with glyphosate had normal anthesis, normal pollen shedding, and normal pollen development as determined by Alexandar staining and microscopic observation.
Double copy R0 events were used in testing to approximate a single copy homozygous event. Plants were sprayed with glyphosate at two different growth stages to determine if the presence of the mts-siRNA target element in the recombinant DNA construct provided vegetative glyphosate tolerance and glyphosate-induced tassel sterility. The plants were sprayed in a greenhouse with 1× glyphosate (0.75 lb ae/acre) applied at the V5 stage followed by 1× glyphosate (0.75 lb ae/acre) applied at the V8 stage. Seven days after the V5 stage glyphosate application, plants were scored for vegetative injury with scores of ≦10% injury considered as showing vegetative glyphosate tolerance (% Vegetative Tolerant). Male sterility was measured in two ways. […] Anthers were then collected and dissected to microscopically observe pollen development. Anthers for each event were tested for no viable pollen grains produced as detected by Alexandar staining under microscopic observation and scored as not producing any viable pollen (% No Pollen). In plants not sprayed with glyphosate, tassel development, anther extrusion, and pollen development were normal.
The mts-siRNA target elements were tested in multiple transformation vector configurations. Each transformation vector was used to produce multiple R0 plants with each R0 plant representing a unique transgenic event made using the same transformation vector. Data for three different transformation vector configurations are provided as Tables 11 and 12.

Molecule: SEQ ID NO: 67: mts-siRNA sequence aligning to cDNA SEQ ID NO: 21 (CCTATCTAGTGTATGACCAAT; expressed or natural sequence)
- 01DKD2 V8-V9 Tassel relative signal value [1]: 123.5
- 01DKD2 V10-V12 Tassel relative signal value [1]: 107
- 01DKD2 Other Tissue relative signal value [1]: 4.3
- LH244 V8-V9 Tassel relative signal value [1]: 216
- LH244 V10-V12 Tassel relative signal value [1]: 62
- LH244 Other Tissue relative signal value [1]: 3.3

Molecule: SEQ ID NO: 31: mts-siRNA sequence aligning to cDNA SEQ ID NO: 17 (ACACGCATGTCACATCGCCGTC; expressed or natural sequence)
- 01DKD2 V8-V9 Tassel relative signal value [1]: 0
- 01DKD2 V10-V12 Tassel relative signal value [1]: 26.5
- 01DKD2 Other Tissue relative signal value [1]: 2.8
- LH244 V8-V9 Tassel relative signal value [1]: 8
- LH244 V10-V12 Tassel relative signal value [1]: 49
- LH244 Other Tissue relative signal value [1]: 1.2

Molecule: SEQ ID NO: 83: mts-siRNA sequence aligning to cDNA SEQ ID NO: 22 (CAAGGCAAGAAGGTGCTT; expressed or natural sequence)
- 01DKD2 V8-V9 Tassel relative signal value [1]: 2
- 01DKD2 V10-V12 Tassel relative signal value [1]: 253.5
- 01DKD2 Other Tissue relative signal value [1]: 1.5
- LH244 V8-V9 Tassel relative signal value [1]: 173
- LH244 V10-V12 Tassel relative signal value [1]: 303
- LH244 Other Tissue relative signal value [1]: 2.5

Molecule: SEQ ID NO: 27: mts-siRNA sequence aligning to cDNA SEQ ID NO: 17 (CGGACATTTGCAGTTCTATGGT; expressed or natural sequence)
- 01DKD2 V8-V9 Tassel relative signal value [1]: 73
- 01DKD2 V10-V12 Tassel relative signal value [1]: 405.5
- 01DKD2 Other Tissue relative signal value [1]: 1
- LH244 V8-V9 Tassel relative signal value [1]: 377.5
- LH244 V10-V12 Tassel relative signal value [1]: 581.7
- LH244 Other Tissue relative signal value [1]: 1.1

Molecule: SEQ ID NO: 44: mts-siRNA sequence aligning to cDNA SEQ ID NO: 19 (TTGGCGTGAAAGCTCGAGTGCTCC; expressed or natural sequence)
- 01DKD2 V8-V9 Tassel relative signal value [1]: 15.5
- 01DKD2 V10-V12 Tassel relative signal value [1]: 1443.5
- 01DKD2 Other Tissue relative signal value [1]: 6.3
- LH244 V8-V9 Tassel relative signal value [1]: 756
- LH244 V10-V12 Tassel relative signal value [1]: 1340
- LH244 Other Tissue relative signal value [1]: 1.8

Molecule: SEQ ID NO: 71: mts-siRNA sequence aligning to cDNA SEQ ID NO: 22 (AGCTATCGATTCCCTAAGTGCCA; expressed or natural sequence)
- 01DKD2 V8-V9 Tassel relative signal value [1]: 46
- 01DKD2 V10-V12 Tassel relative signal value [1]: 1943.5
- 01DKD2 Other Tissue relative signal value [1]: 2.3
- LH244 V8-V9 Tassel relative signal value [1]: 1125.5
- LH244 V10-V12 Tassel relative signal value [1]: 2380
- LH244 Other Tissue relative signal value [1]: 1.6

Molecule: SEQ ID NO: 57: mts-siRNA sequence aligning to cDNA SEQ ID NO: 20 (GACATTTGCAGTTCTATGGTGT; expressed or natural sequence)
- 01DKD2 V8-V9 Tassel relative signal value [1]: 29
- 01DKD2 V10-V12 Tassel relative signal value [1]: 134.5
- 01DKD2 Other Tissue relative signal value [1]: 3.8
- LH244 V8-V9 Tassel relative signal value [1]: 126.5
- LH244 V10-V12 Tassel relative signal value [1]: 248
- LH244 Other Tissue relative signal value [1]: 2.4

Molecule: SEQ ID NO: 53: mts-siRNA sequence aligning to cDNA SEQ ID NO: 20 (CCATGTAATACACAGTGTCGTC; expressed or natural sequence)
- 01DKD2 V8-V9 Tassel relative signal value [1]: 16
- 01DKD2 V10-V12 Tassel relative signal value [1]: 84
- 01DKD2 Other Tissue relative signal value [1]: 1.5
- LH244 V8-V9 Tassel relative signal value [1]: 76.5
- LH244 V10-V12 Tassel relative signal value [1]: 145
- LH244 Other Tissue relative signal value [1]: 2.2

Molecule: SEQ ID NO: 50: mts-siRNA sequence aligning to cDNA SEQ ID NO: 19 (CTGATATCTATGCTAATTCAGG; expressed or natural sequence)
- 01DKD2 V8-V9 Tassel relative signal value [1]: 5.5
- 01DKD2 V10-V12 Tassel relative signal value [1]: 326
- 01DKD2 Other Tissue relative signal value [1]: 1.8
- LH244 V8-V9 Tassel relative signal value [1]: 296
- LH244 V10-V12 Tassel relative signal value [1]: 722
- LH244 Other Tissue relative signal value [1]: 0

B1: SEQ ID NO: 16: recombinant mts-siRNA target element sequence (nucleic acid)
DNA: GACAACAAGCACCTTCTTGCCTTGCAGTATTGGTGGTGACGACATCCTTGGTGTGCATGCACTGGTGAGTCACTGTTGTACGTGATAACTTCTATGCTGGCTGTGATTGCTAGTTGAAGAAAAGAATAGATATGGTGACATCAAGTTTCCACTGCGTGACGCCAACGTGCATATCGCCATCCTCTGCTACGAGGGAATGTCATTGGTCGATGAGATGAGGGTGAATCGGATGTTGAGGTGGCACGATAGTTAAGGCGCAAGGGT
- % Vegetative Tolerant [2]: 80%
- % Completely Male-sterile [2]: 50%
- % No Pollen [2]: 0%

B2: SEQ ID NO: 15: recombinant mts-siRNA target element sequence (nucleic acid)
DNA: TCGTCCAAACGTGACCGTGTGGCTAGAAGCAGAGGATGGCGATATGCACGTTATGCTTTCCTAGACTCTCACTGTAGTGG
modifications: chemistry not fully specified; the letters are possibly those of the target site
- % Vegetative Tolerant ([2]; listed as 15): 90%
- % Completely Male-sterile [2]: none
- % Completely Male-sterile ([2]; listed as 15): 0%
- % No Pollen [2]: 0%

B3: SEQ ID NO: 14: recombinant mts-siRNA target element sequence (nucleic acid)
DNA: CCCAACGTGCATATCGCCATCCTCTGCTACGAGGGAATGTCATTGGTCGATGAGATGAGGGTGAATCGGATGTTGAGGTGGCACGATAGTTAAGGCGCAAGGGTAT
modifications: chemistry not fully specified; the letters are possibly those of the target site
- % Vegetative Tolerant ([2]; listed as 14): 90%
- % Completely Male-sterile [2]: none
- % Completely Male-sterile ([2]; listed as 14): 0%
- % No Pollen [2]: 0%

B4: SEQ ID NO: 13: recombinant mts-siRNA target element sequence (nucleic acid)
DNA: ACGTGATAACTTCTATGCTGGCTGTGATTGCTAGTTGAAGAAAAGAATAGATATGGTGACATCAAGTTTCCACTGCGTGACG
modifications: chemistry not fully specified; the letters are possibly those of the target site
- % Vegetative Tolerant ([2]; listed as 13): 100%
- % Completely Male-sterile [2]: none
- % Completely Male-sterile ([2]; listed as 13): 0%
- % No Pollen [2]: 0%

B5: SEQ ID NO: 2: mts-siRNA target element, single nucleotide change (T69A) relative to SEQ ID NO: 1 (nucleic acid)
DNA: AGACGACGACCGTGCATGGTGATGAATCACAGACGACGAACACGCATGTCGCATCGCCGTCCTCTTTGAATCACACAGCATCACCTTCTTCGCTCTACTACTCCCCCGAGCAATCACCGACCAATAACACCAACCATCAACCTCCCCCGTCGCCGCCGCCTTCACCGTCCTCCCCTCACACCATAGAACTGCAAATGTCCG
- tassel male sterility and pollen by Alexandar stain ([2]; double copy R0 events with SEQ ID NO: 2, glyphosate 0.75 lb ae/acre at V5 then V8): very few aborted pollen grains or no pollen grains were detected
- % Vegetative Tolerant ([2]; listed as 2): 100%
- % Completely Male-sterile ([2]; listed as 2): 82%
- % No Pollen [2]: 82%

B6: SEQ ID NO: 9: reverse complement of mts-siRNA target element, 99% identity to positions 191 to 490 of cDNA SEQ ID NO: 22 (nucleic acid)
DNA: GGACAACAAGCACCTTCTTGCCTTGCAAGGCCTCCCTTCCCTATGGTAGCCACTTGAGTGGATGACTTCACCTTAAAGCTATTGATTCCCTAAGTGCCAGACATAATAGGCTATACATTCTCTCTGGTGGCAACAATGAGCCATTTTGGTTGGTGTGGTAGTCTATTATTGAGTTTTTTTTGGCACCGTACTCCCATGGAGAGTAGAAGACAAACTCTTCACCGTTGTAGTCGTTGATGGTATTGGTGGTGACGACATCCTTGGTGTGCATGCACTGGTGAGTCACTGTTGTACTCGGCG
modifications: Zea mays
- % Vegetative Tolerant ([2]; listed as 9): 100%
- % Completely Male-sterile ([2]; listed as 9): 40%
- % No Pollen [2]: 0%
